In patent US20180057505A1, “BICYCLIC HETEROARYL COMPOUNDS USEFUL AS INHIBITORS OF THE PAR-2 SIGNALING PATHWAY” (VERTEX PHARMACEUTICALS INCORPORATED, priority 2015, published 2018):

Legend:
Type in all cases: cell-based
PAR2 (HT-29 cells) [1] = target: T1, PAR2 (HT-29 cells) (Homo sapiens, UniProt P55085); experiment: Ca FLIPR TETRA assay, ANTAGONIST mode, activator 8 μM SLIGKV; conditions: HT-29 cells, activator 8 μM SLIGKV; maximal antagonist concentration per Method (A: 0.1, 1 or 2 μM; B: 50 μM)
T1 construct: host or cells: HT-29
T1 sequence (P55085 26-397): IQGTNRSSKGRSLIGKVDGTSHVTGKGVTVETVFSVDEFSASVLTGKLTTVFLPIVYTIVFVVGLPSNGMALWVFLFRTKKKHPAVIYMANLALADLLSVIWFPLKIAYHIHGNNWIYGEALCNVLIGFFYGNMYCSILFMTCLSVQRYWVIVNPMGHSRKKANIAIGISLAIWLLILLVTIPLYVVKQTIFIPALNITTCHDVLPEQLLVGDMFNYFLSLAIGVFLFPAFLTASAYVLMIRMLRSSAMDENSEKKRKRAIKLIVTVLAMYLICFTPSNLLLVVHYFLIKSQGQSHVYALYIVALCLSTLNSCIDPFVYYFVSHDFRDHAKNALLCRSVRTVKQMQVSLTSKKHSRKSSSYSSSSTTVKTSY
Method in brief: (§1)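 HT-29 cells plated overnight at 37 °C in 1% FBS/McCoy's, loaded with calcium 5 dye (45 min 37 °C, 15 min r.t.), then preincubated with compounds 30 min at r.t. before a fixed activator challenge. Intracellular Ca2+ read by FLIPR Tetra; a first read checks compound-alone activation.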

[2] = test system: Thrombin-stimulated Ca2+ response in HT-29 cells; experiment: Ca FLIPR TETRA assay, ANTAGONIST mode, activator 1 U/mL Thrombin; conditions: Homo sapiens; HT-29 cells, activator 1 U/mL Thrombin
Method in brief: as §1

PAR2 (HT-29 cells) [3] = target: T1, PAR2 (HT-29 cells); experiment: Ca FLIPR TETRA assay, ANTAGONIST mode, activator 3.1 U/mL trypsin; conditions: HT-29 cells, activator 3.1 U/mL trypsin; maximal antagonist concentration per Method (A: 0.1, 1 or 2 μM; B: 50 μM)
Method in brief: as §1

[4] = test system: UTP-stimulated Ca2+ response in HT-29 cells; experiment: Ca FLIPR TETRA assay, ANTAGONIST mode, activator 0.6 μM UTP; conditions: Homo sapiens; HT-29 cells, activator 0.6 μM UTP
Method in brief: as §1

Structure (SMILES): CC(C)(C)c1cc(-c2ccc(C(F)(F)F)cc2)nc2cc(C(=O)N3CCN(C(=O)[C@H]4C[C@@](C)(O)C4)CC3(C)C)oc12 [Example I-158]
- IC50 (PAR2 (HT-29 cells) [1]): 3.1 nM
- IC50 [2]: > 1000 nM
- IC50 (PAR2 (HT-29 cells) [3]): 3.9 nM
- IC50 [4]: > 1000 nM

Structure (SMILES): CC(C)(C)c1cc(-c2ccc(Cl)cc2)nc2cc(C(=O)N3CCN(C(=O)[C@H]4C[C@@](C)(O)C4)CC3(C)C)oc12 [Example I-159]
- IC50 (PAR2 (HT-29 cells) [1]): 0.6 nM
- IC50 [2]: > 1000 nM
- IC50 (PAR2 (HT-29 cells) [3]): 1.1 nM
- IC50 [4]: > 1000 nM

Structure (SMILES): Cc1nnc(C(=O)N2CCN(C(=O)c3cc4nc(-c5ccc(F)cc5)cc(C(C)(C)C)c4o3)C(C)(C)C2)[nH]1 [Example I-160]
- IC50 (PAR2 (HT-29 cells) [1]): 1.6 nM
- IC50 [2]: > 1000 nM
- IC50 (PAR2 (HT-29 cells) [3]): 3.1 nM
- IC50 [4]: > 1000 nM

Structure (SMILES): Cc1cc(-c2cc(C(C)(C)C)c3oc(C(=O)N4CCNC(=O)C4(C)C)cc3n2)ccc1F [Example I-161]
- IC50 (PAR2 (HT-29 cells) [1]): 16 nM
- IC50 [2]: > 1000 nM
- IC50 (PAR2 (HT-29 cells) [3]): 25 nM
- IC50 [4]: > 1000 nM

Structure (SMILES): Cc1cc(-c2cc(C(C)(C)C)c3oc(C(=O)N4CCN(C(=O)c5nnc[nH]5)CC4(C)C)cc3n2)ccc1F [Example I-162]
- IC50 (PAR2 (HT-29 cells) [1]): 10 nM
- IC50 [2]: > 1000 nM
- IC50 (PAR2 (HT-29 cells) [3]): 15 nM
- IC50 [4]: > 1000 nM

Structure (SMILES): Cc1cc(-c2cc(C(C)(C)C)c3oc(C(=O)N4CCN(C(=O)[C@H]5C[C@@](C)(O)C5)CC4(C)C)cc3n2)ccc1F [Example I-163]
- IC50 (PAR2 (HT-29 cells) [1]): 2.9 nM
- IC50 [2]: > 1000 nM
- IC50 (PAR2 (HT-29 cells) [3]): 3.6 nM
- IC50 [4]: > 1000 nM

Structure (SMILES): Cc1ccc(-c2cc(C(C)(C)C)c3oc(C(=O)N4CCN(C(=O)[C@H]5C[C@@](C)(O)C5)CC4(C)C)cc3n2)cc1 [Example I-164]
- IC50 (PAR2 (HT-29 cells) [1]): 2.9 nM
- IC50 [2]: > 1000 nM
- IC50 (PAR2 (HT-29 cells) [3]): 4 nM
- IC50 [4]: > 1000 nM

Structure (SMILES): Cc1ccc(-c2cc(C(C)(C)C)c3oc(C(=O)N4CCNC(=O)C4(C)C)cc3n2)cc1 [Example I-165]
- IC50 (PAR2 (HT-29 cells) [1]): 16 nM
- IC50 [2]: > 1000 nM
- IC50 (PAR2 (HT-29 cells) [3]): 19 nM
- IC50 [4]: > 1000 nM

Structure (SMILES): Cc1nnc(C(=O)N2CCN(C(=O)c3cc4nc(-c5ccc(F)c(C)c5)cc(C(C)(C)C)c4o3)C(C)(C)C2)[nH]1 [Example I-166]
- IC50 (PAR2 (HT-29 cells) [1]): 1.3 nM
- IC50 [2]: > 1000 nM
- IC50 (PAR2 (HT-29 cells) [3]): 3.3 nM
- IC50 [4]: > 1000 nM

Structure (SMILES): Cc1cc(-c2cc(C(C)(C)C)c3oc(C(=O)N4CCN(C(=O)c5ccn[nH]5)CC4(C)C)cc3n2)ccc1F [Example I-167]
- IC50 (PAR2 (HT-29 cells) [1]): 8.4 nM
- IC50 [2]: > 1000 nM
- IC50 (PAR2 (HT-29 cells) [3]): 19 nM
- IC50 [4]: > 1000 nM

Structure (SMILES): CC(C)(C)c1cc(-c2ccc(Cl)cc2)nc2cc(C(=O)N3CCN(C(=O)c4ccn[nH]4)CC3(C)C)oc12 [Example I-168]
- IC50 (PAR2 (HT-29 cells) [1]): 2.8 nM
- IC50 [2]: > 1000 nM
- IC50 (PAR2 (HT-29 cells) [3]): 3 nM
- IC50 [4]: > 1000 nM

Structure (SMILES): CC(C)(C)c1cc(-c2ccc(Cl)cc2)nc2cc(C(=O)N3CCN(C(=O)c4nnc[nH]4)CC3(C)C)oc12 [Example I-169]
- IC50 (PAR2 (HT-29 cells) [1]): 0.9 nM
- IC50 [2]: > 1000 nM
- IC50 (PAR2 (HT-29 cells) [3]): 2.4 nM
- IC50 [4]: > 1000 nM

Structure (SMILES): Cc1ncc(C(=O)N2CCN(C(=O)c3cc4nc(-c5ccc(C(F)(F)F)cc5)cc(C(C)(C)C)c4o3)C(C)(C)C2)[nH]1 [Example I-170]
- IC50 (PAR2 (HT-29 cells) [1]): 6 nM
- IC50 [2]: > 1000 nM
- IC50 (PAR2 (HT-29 cells) [3]): 8.2 nM
- IC50 [4]: > 1000 nM

Structure (SMILES): Cc1cc(C(=O)N2CCN(C(=O)c3cc4nc(-c5ccc(C(F)(F)F)cc5)cc(C(C)(C)C)c4o3)C(C)(C)C2)[nH]n1 [Example I-171]
- IC50 (PAR2 (HT-29 cells) [1]): 5.6 nM
- IC50 [2]: > 1000 nM
- IC50 (PAR2 (HT-29 cells) [3]): 6.6 nM
- IC50 [4]: > 1000 nM

Structure (SMILES): CC(C)(C)c1cc(-c2ccc(Cl)c(F)c2)nc2cc(C(=O)N3CCNC(=O)C3(C)C)oc12 [Example I-172, 4-[7-tert-butyl-5-(4-chloro-3-fluoro-phenyl)furo[3,2-b]pyridine-2-carbonyl]-3,3-dimethyl-piperazin-2-one]
- IC50 (PAR2 (HT-29 cells) [1]): 10 nM
- IC50 [2]: > 1000 nM
- IC50 (PAR2 (HT-29 cells) [3]): 12 nM
- IC50 [4]: > 1000 nM

Structure (SMILES): CC(C)(C)c1cc(-c2ccc(C(F)(F)F)cc2)nc2cc(C(=O)N3CCN(C(=O)c4nnc[nH]4)CC3(C)C)oc12 [Example I-173]
- IC50 (PAR2 (HT-29 cells) [1]): 4.8 nM
- IC50 [2]: > 1000 nM
- IC50 (PAR2 (HT-29 cells) [3]): 7.5 nM
- IC50 [4]: > 1000 nM

Structure (SMILES): Cc1nnc(C(=O)N2CCN(C(=O)c3cc4nc(-c5ccc(C(F)(F)F)cc5)cc(C(C)(C)C)c4o3)C(C)(C)C2)[nH]1 [Example I-174]
- IC50 (PAR2 (HT-29 cells) [1]): 1.9 nM
- IC50 [2]: > 1000 nM
- IC50 (PAR2 (HT-29 cells) [3]): 3.2 nM
- IC50 [4]: > 1000 nM

Structure (SMILES): Cc1nnc(C(=O)N2CCN(C(=O)c3cc4nc(-c5ccc(C(F)(F)F)cc5)cc(C(C)(C)C)c4o3)C(C)(C)C2)o1 [Example I-175]
- IC50 (PAR2 (HT-29 cells) [1]): 16 nM
- IC50 [2]: > 1000 nM
- IC50 (PAR2 (HT-29 cells) [3]): 16 nM
- IC50 [4]: > 1000 nM
